Assay results reported in US4943573A, “Imidazo[4,5-b]quinolinyloxyalkanoic acid amides with enhanced water solubility” (Bristol-Myers Squibb Company, priority 1989, dated 1990).
Like-named read-outs stand apart in the source and are kept apart here.

Legend:
[1] = target: T1, cyclic AMP phosphodiesterase (PDE) enzyme obtained from human platelets (Homo sapiens, UniProt Q14432); assay: inhibition of cyclic AMP phosphodiesterase; format: biochemical; settings: human platelet PDE
T1 construct: phosphodiesterase (PDE) enzyme obtained from human platelets; from tissue; host or cells: human platelets
Procedure: This assay is carried out essentially as described by Thompson, et al., Methods in Enzymology, 38, […] (1974). Briefly, tritium labeled cyclic adenosine monophosphate (cAMP) is incubated with a phosphodiesterase (PDE) enzyme obtained from human platelets which converts a portion of the cAMP to 5'AMP in culture tubes. This reaction is terminated by submerging the tubes in a boiling water bath after which they are placed on ice and an aliquot of snake venom is added to each tube. This, during a second incubation, converts the 5'AMP to adenosine. Ion exchange resin is added to bind the remaining cyclic AMP. The tubes are centrifuged to sediment the resin and a portion of the clear supernatent (which contains radioactive adenosine) is counted in a liquid scintillation counter. The cAMP phosphodiesterase inhibition activity of a test agent is determined by pre-incubating the PDE enzyme preparation with the test agent. Dose response values are obtained and activity of the test agent reported as the molar (M) concentration of the test agent inhibition 50% of the PDE activity (IC50 s).

[2] = tested on: ferrets; assay: in vivo inotropic activity in anesthetized ferrets (hemodynamic parameters and right ventricular contractile force); set-up: species or system ferret; settings: for change in vivo at 3 mg/kg: Mustela putorius, intraduodenal, 1 h, 3 mg/kg intraduodenally, monitored 60 minutes
Procedure: This test is […] out in ferrets as follows. Fasted anesthetized ferrets are instrumented to study hemodynamic parameters as well as right ventricular contractile force (RVCF) using a Walton-Brodie open strain gauge arch. Drugs are administered intraduodenally as solutions in DMSO (1 mL or less) and effects on myocardial contractile force and other parameters are monitored for 60 minutes after dosing. Changes in contractile force in response to drug treatment are expressed in terms of percent change from predose control.

[3] = tested on: Biolaser-induced thrombosis / platelet aggregation in rabbit ear; assay: in vivo inhibition of biolaser-induced platelet aggregation in the rabbit ear (Biolaser Model); set-up: species or system rabbit (English, half-lop); settings: for inhibition in vivo at 0.1 mg/kg: Oryctolagus cuniculus, Platelet, po, 0.1 mg/kg orally, 2 hours
Procedure: Transparent ear chambers were chronically implanted in adult, English, half-lop rabbits. The animals were conditioned to lie quietly in a supine position. Localized microvascular injury was induced by focusing a single pulse ruby laser beam through a microscope into the lumen of a vessel […] in diameter. This evoked the formation of a small thrombus consisting of platelets accumulated around a core of one or two damaged red cells. Thrombi areas were determined using computerized planimetry. The mean thrombus area (μM^2) obtained for 10 trials in each rabbit served as the control value. Subsequently, the test compound was administered orally and 2 hours later a second series of laser-induced thrombi trials were performed. Drug activity was evaluated by comparing pre-and post-dose mean thrombus areas. Activity determined at other time points beyond 2 hours establish duration of action.

[4] = tested on: ADP-induced platelet aggregation; assay: in vitro inhibition of ADP-induced platelet aggregation (aggregometer method of Born, platelet rich plasma); format: cell-based; settings: human platelet rich plasma; ADP 2.5 mcg/ml; as the dihydrochloride salt; read-out: EC50 versus ADP (inhibition of ADP-induced platelet aggregation)
Procedure: The aggregometer method of Born^1, as modified by Mustard, et al.^2 was used to assess the in vitro activity of the various compounds as to inhibition of adenosine diphosphate (ADP) and collagen-induced platelet aggregation. Platelet rich plasma (PRP) was separated by centrifugation from citrated (3.8 percent) human blood. ADP in final concentration of 2.5 mcg/ml or 0.05 ml of a collagen suspension prepared according to the method described by Evans, et al.^3 was used to induce aggregation. The various Evans, et al. compounds tested were dissolved in dimethylsulfoxide (DMSO) so that 5 mcl added to the platelet rich plasma would yield the desired test concentration. Vehicle control trials were done and compared with aggregation induced in platelet rich plasma containing various concentrations of the test compounds. Dose response curves were thus obtained and Effective Concentration (EC50) values calculated.

[5] = solubility; format: physicochemical
[6] = Table I, read-out: cAMP PDE IC50 (m)
[7] = change from predose control, read-out: Ferret, Maximum % Change, VCF (ventricular contractile force)
[8] = read-out: Ferret, Maximum % Change, HR (heart rate)
[9] = read-out: Ferret, Maximum % Change, MAP (mean arterial blood pressure)

T1 sequence (Q14432 whole entry): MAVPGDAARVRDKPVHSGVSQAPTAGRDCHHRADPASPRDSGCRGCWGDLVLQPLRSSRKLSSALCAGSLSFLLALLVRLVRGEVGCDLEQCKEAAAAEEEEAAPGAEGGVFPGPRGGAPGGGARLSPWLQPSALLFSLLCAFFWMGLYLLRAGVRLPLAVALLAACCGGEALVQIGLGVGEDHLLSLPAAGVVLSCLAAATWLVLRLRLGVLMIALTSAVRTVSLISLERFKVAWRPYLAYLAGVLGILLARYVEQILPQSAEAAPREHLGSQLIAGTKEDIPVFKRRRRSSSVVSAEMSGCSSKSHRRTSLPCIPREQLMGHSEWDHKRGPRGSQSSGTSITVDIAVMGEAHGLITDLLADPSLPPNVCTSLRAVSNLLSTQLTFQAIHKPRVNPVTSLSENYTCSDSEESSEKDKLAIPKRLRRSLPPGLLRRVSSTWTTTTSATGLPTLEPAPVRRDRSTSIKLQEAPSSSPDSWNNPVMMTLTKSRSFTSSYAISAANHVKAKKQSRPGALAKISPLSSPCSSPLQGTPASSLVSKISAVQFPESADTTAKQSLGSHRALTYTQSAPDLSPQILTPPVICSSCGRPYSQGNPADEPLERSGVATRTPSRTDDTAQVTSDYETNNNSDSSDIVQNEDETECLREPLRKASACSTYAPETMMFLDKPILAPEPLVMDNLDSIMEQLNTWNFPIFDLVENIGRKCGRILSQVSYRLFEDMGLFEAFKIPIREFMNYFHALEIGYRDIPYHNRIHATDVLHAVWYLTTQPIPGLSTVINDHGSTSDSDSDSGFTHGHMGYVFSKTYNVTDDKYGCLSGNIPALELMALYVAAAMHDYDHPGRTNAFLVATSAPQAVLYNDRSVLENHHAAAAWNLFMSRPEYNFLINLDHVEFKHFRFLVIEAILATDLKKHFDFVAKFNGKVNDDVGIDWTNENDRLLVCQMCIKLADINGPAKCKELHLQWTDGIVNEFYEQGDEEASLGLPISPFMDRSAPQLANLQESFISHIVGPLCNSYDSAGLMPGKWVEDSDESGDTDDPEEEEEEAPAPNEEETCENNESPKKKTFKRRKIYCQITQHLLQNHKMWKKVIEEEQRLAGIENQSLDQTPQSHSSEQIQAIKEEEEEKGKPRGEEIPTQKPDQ

SMILES	IC50 [1, 6]	change in vivo at 3 mg/kg [2, 7]	change in vivo at 3 mg/kg [2, 8]	change in vivo at 3 mg/kg [2, 9]	inhibition in vivo at 0.1 mg/kg ([3]; rabbit)	EC50 [4]	IC50 ([1]; read-out: IC50, cAMP phosphodiesterase inhibition)	increase in RVCF (right ventricular contractile force) ([2]; 3 mg/kg, ferret)	activity in Biolaser Model relative to Table I compounds ([3]; 0.3 mg/kg body weight, compared with Table I compounds)	inhibition in Biolaser Model ([3]; 0.3 mg/kg body weight, rabbit)	solubility ([5]; 2.0n hcl, read-out: solubility in 2.0N HCl)	solubility ([5]; water, read-out: solubility in water)
O=C(CCCOc1ccc2nc3[nH]c(=O)[nH]c3cc2c1)N1CCN(Cc2ccccc2)CC1 [Example 11]	0.7 nM	28%	31%	-42%	50%							
O=C(CCCOc1ccc2nc3[nH]c(=O)[nH]c3cc2c1)N1CCN(Cc2cccc(C(F)(F)F)c2)CC1 [Example 14, 1-[4-(2,3-Dihydro-2-oxo-1H-imidazo[4,5-b]quinolin-7-(yloxy)-1-oxobutyl]-4-[[3-trifluormethyl)phenyl-]methyl]piperazine]	9 nM	3%	12%	-16%	49%							
COc1ccc(CN2CCN(C(=O)CCCOc3ccc4nc5[nH]c(=O)[nH]c5cc4c3)CC2)cc1 [Example 15]	3 nM	24%	17%	-23%	48%							
O=C(CCCOc1ccc2nc3[nH]c(=O)[nH]c3cc2c1)N1CCN(C2CCCCCC2)CC1 [Example 25, 1-Cycloheptanyl-4-[4-(2,3-dihydro-2-oxo-1H-imidazo[4,5-b]quinolin-7-yloxy)-1-oxobutyl]piperazine]	0.9 nM	26%	17%	-12%	49%							
O=C(CCCOc1ccc2nc3[nH]c(=O)[nH]c3cc2c1)N1CCN(CC2CCCCC2)CC1 [Example 22, 1-(Cyclohexylmethyl)-4-[4-(2,3-dihydro-2-oxo-1H-imidazo[4,5-b]quinolin-7-yloxy)-1-oxybutyl]piperazine]		27%	29%	-15%	59%	910 nM	0.4 nM					
Cc1[nH]c(=O)c(C#N)cc1-c1ccncc1 [milrinone, reference compound]								52%				
O=C(CCCOc1ccc2nc3[nH]c(=O)[nH]c3cc2c1)N1CCN(Cc2cccs2)CC1 [Example 16, 1-[4-(2,3-Dihydro-2-oxo-1H-imidazo[4,5-b]quinolin-7-yloxy)-1-oxobutyl]-4-(2-thienylmethyl)piperazine]	0.7 nM	30%	16%	-27%	49%							
O=C(CCCOc1ccc2nc3[nH]c(=O)[nH]c3cc2c1)N1CCN(c2ccccn2)CC1 [Example 19]	5 nM	-8%	12%	-15%	47%							
O=C(CCCOc1ccc2nc3[nH]c(=O)[nH]c3cc2c1)N1CCN(Cc2ccc(F)cc2)CC1 [Example 13]	2 nM	32%	21%	-11%	46%							
O=C(CCCOc1ccc2nc3[nH]c(=O)[nH]c3cc2c1)N1CCN(c2ccccc2)CC1 [1-[4-[(2,3-dihydro-2-oxo-1H-imidazo[4,5-b]-quinolin-7-yl)oxy]-1-oxobutyl]-4-phenylpiperazine, reference compound]									markedly less active than Table I compounds	22%	< 10 µg/mL	< 10 µg/mL
